≈ marks a conversion by molar mass, not a printed value.

Series [1] in a line: Equilibrium solubility study in deionized water. The series is classed as physicochemical. The settings on record: for crystal transformation (XRPD of the solid): dispersed in water for 24 hours. The method, then:
About 2.0 to 5.0 mg of each of crystalline form A, crystalline form B and crystalline form D of the compound of Formula (I) was weighed, added to a 3 ml vial, and added with 1.0 ml of deionized water. The resulting suspension was then placed in a rotary incubator (rotation speed was 25 rpm), and equilibrated in a biochemical incubator at 25° C. for 24 hours before 0.8 ml of the suspension was taken. The suspension was centrifuged (6000 rpm, 15 minutes), the supernatant was detected by HPLC for solubility, and the XRPD pattern of the solid was detected.

Series [2] can be described thus: Stability relationship (slurry of crystalline forms in water pre-saturated with form A). The series is classed as physicochemical. The settings on record: slurried in H2O pre-saturated with crystalline form A, room temperature, about 4 days. The method, then: An equal weight of each of crystalline forms A, B and D (8 mg each) was weighed and respectively added to a H2O solution (0.3 ml) pre-saturated with a sample of crystalline form A at room temperature, and the resulting suspension was slurried at room temperature for about 4 days before isolation of the solid. The wet and dry samples were respectively subjected to XRPD pattern detection.

Series [3] can be described thus: Drug excretion experiment in mice (radioactivity recovery in urine and feces). It counts as in vivo, ICR mice. The method, then: Crystalline form A having a radioisotope ([^14C] crystalline form A) is formulated as a suspension in 0.5% sodium carboxymethylcellulose (CMC-Na), and ICR mice were administered by single gavage at a dose of 117 μCi/4.08 mg/kg [^14C] crystalline form A. The absorption and excretion characteristics of crystalline form A were examined by measuring the radioactivity recovery in urine and feces.

The nature of a further series: Light experiment. The series is classed as physicochemical. The settings on record: light intensity of 4500 1×, 25° C., RH 25%. The method, then:
Crystalline form A of the compound of Formula (I) was placed under the conditions of a light intensity of 4500 1×, 25° C., and RH 25% for 30 days, and samples were taken on Day 0, 5, 11 and 30, respectively, to observe changes in the properties of the samples. The specific optical rotation was measured with a polarimeter, the loss on drying was measured, and the total impurity content was measured by HPLC.

Series [4] can be described thus: Pharmacokinetic experiment in mice. The settings on record: single gavage. The series is classed as in vivo, ICR mice. The method, then: Crystalline form A of the compound of Formula (I) was formulated as a suspension in 0.5% sodium carboxymethylcellulose (CMC-Na), and ICR mice were administered by single gavage to investigate the pharmacokinetic characteristics. The single gavage doses were 2 mg/kg, 4 mg/kg and 8 mg/kg, respectively.
The pharmacokinetic parameters were each calculated according to the concentration-time curve of metabolite I in plasma.

Series [5] in a line: High temperature experiment. It counts as physicochemical. The settings on record: 60° C. As for the experimental part:
Crystalline form A of the compound of Formula (I) was allowed to stand at a high temperature of 60° C. for 30 days, and samples were taken at Day 0, 5, 10, and 30, respectively, to observe changes in the properties of the samples. The specific optical rotation was measured with a polarimeter, the loss on drying was measured, and the total impurity content was measured by HPLC.

The nature of a further series: High humidity experiment. The series is classed as physicochemical. The settings on record: 25° C. and RH 75%. As for the experimental part:
Crystalline form A of the compound of Formula (I) was placed under a high humidity condition of 25° C. and RH 75% for 30 days, and samples were taken at Day 0, 5, 10, and 30, respectively, to observe changes in the properties of the samples. The specific optical rotation was measured with a polarimeter, the loss on drying was measured, and the total impurity content was measured by HPLC.

The nature of series [6]: Solid state stability at 40° C./75% RH. It counts as physicochemical. The settings on record: open container, 8 days. The method, then:
A suitable amount of crystalline form A of the compound of Formula (I) was weighed as a test sample, and it was left in an open container for 8 days under conditions of 40° C./75% RH (RH means relative humidity). The XRPD pattern of the test sample after the treatment was detected, and the purity was measured by HPLC.

A short description of series [7]: Pharmacokinetic experiment in beagle dogs. It counts as in vivo. The settings on record: single gavage. The method, then: Crystalline form A of the compound of Formula (I) was formulated as a suspension in 0.5% CMC-Na, and administered by single gavage to beagle dogs. The single gavage doses were 0.1 mg/kg, 0.2 mg/kg and 0.4 mg/kg, respectively.
Where [8] appears, read: inferred from urine radioactivity recovery.

Turning to `CC(C)OC(=O)[C@H](C)N[P@](=O)(OC[C@H]1S[C@@H](n2ccc(N)nc2=O)[C@@H](F)[C@@H]1O)Oc1ccccc1` [crystalline form B, (S)-isopropyl 2-(((S)-(((2R,3S,4S,5R)-5-(4-amino-2-oxopyrimidin-1(2H)-yl)-4-fluoro-3-hydroxytetrahydrothiophen-2-yl)methoxy)(phenoxy)phosphoryl)amino)propanoate], in series [1] (deionized water, 25° C., after 24 hours, HPLC), the solubility in water is around 1800 µg/mL (≈ 3390 µM). Moreover, in series [1] (25° C.), the “crystal transformation (XRPD of the solid)” value is given as “did not undergo crystal transformation”. For the same compound, in series [2], the “stability relationship / conversion of crystalline form (XRPD)” value (“stability relationship / conversion” for short) was “converted to crystalline form A”.

As for `CC(C)OC(=O)[C@H](C)N[P@](=O)(OC[C@H]1S[C@@H](n2ccc(N)nc2=O)[C@@H](F)[C@@H]1O)Oc1ccccc1` [crystalline form D, (S)-isopropyl 2-(((S)-(((2R,3S,4S,5R)-5-(4-amino-2-oxopyrimidin-1(2H)-yl)-4-fluoro-3-hydroxytetrahydrothiophen-2-yl)methoxy)(phenoxy)phosphoryl)amino)propanoate], the “crystal transformation (XRPD of the solid)” value in [1] (25° C.) is reported as “underwent crystal transformation”. In [2], the “stability relationship / conversion” value is reported as “converted to crystalline form A”.

For `CC(C)OC(=O)[C@H](C)N[P@](=O)(OC[C@H]1S[C@@H](n2ccc(N)nc2=O)[C@@H](F)[C@@H]1O)Oc1ccccc1` [[^14C] crystalline form A], the “radioactivity recovery in urine” value in series [3] (single gavage 117 μCi/4.08 mg/kg, within 0 to 120 hours) is 78.7%. Further, the “radioactive substances excreted in urine and feces, of the administered amount” value in series [3] (single gavage, within 48 hours after administration) is recorded as 84.5%.

The term solubility denotes the dissolved amount per volume that the medium holds. Consider `CC(C)OC(=O)[C@H](C)N[P@](=O)(OC[C@H]1S[C@@H](n2ccc(N)nc2=O)[C@@H](F)[C@@H]1O)Oc1ccccc1` [crystalline form A, (S)-isopropyl 2-(((S)-(((2R,3S,4S,5R)-5-(4-amino-2-oxopyrimidin-1(2H)-yl)-4-fluoro-3-hydroxytetrahydrothiophen-2-yl)methoxy)(phenoxy)phosphoryl)amino)propanoate], for which the appearance result (in the series “Light experiment” (30 days); in [5] (30 days); in “High humidity experiment” (30 days)) was “no change in the appearance” each time. The “variation in the specific optical rotation” value in “Light experiment” (Day 0 to Day 30) is at most 3 °; in [5] (Day 0 to Day 30), at most 2 °; in “High humidity experiment” (Day 0 to Day 30), at most 1 °. Moreover, the “loss on drying %” value is at most 1.0% in “Light experiment” (different time points), at most 1.07% in series [5] (different time points) and at most 1.0% in “High humidity experiment” (different time points). Besides, the “total impurity content detected by HPLC” value (in “Light experiment” (different time points); in series [5] (different time points); in “High humidity experiment” (different time points)) was “remained substantially unchanged” each time. In addition, the “metabolism upon entering the body” value in series [4] and in [7] was “rapidly metabolized as pharmacologically active metabolite I” in each case. Besides, the “crystal transformation (XRPD)” value in series [6] is on record as “did not undergo crystal transformation”. For the same compound, the “relative purity of the sample (HPLC)” value in series [6] was determined as 99.9%. The compound further gave a solubility at 24 h in [1] (deionized water, 25 °C, water, thermodynamic from solid, deionized water, after 24 hours, HPLC) of around 1000 µg/mL (≈ 1880 µM). Moreover, the “crystal transformation (XRPD of the solid)” value in [1] (25° C.) is “did not undergo crystal transformation”. In series [3] (setting [8]), the “absolute bioavailability by intragastric administration” value is reported as “above 78.7%”. Further, the “proportion of the drug ingredient absorbed into the blood by oral administration” value in series [3] (setting [8]) is recorded as “at least 78.7%”. Besides, the “stability relationship / conversion” value in [2] was “more stable at room temperature”.
